Calls of active or inactive are those of the source. No cut-off for these calls is given here.
Experiments:
Cytochrome P450 2B6 = biological target: T1, Cytochrome P450 2B6 (Homo sapiens, UniProt P20813); experiment: Inhibition of CYP2B6 (unknown origin) using bupropion as substrate […]; type: ADME
T1 sequence (P20813 whole entry): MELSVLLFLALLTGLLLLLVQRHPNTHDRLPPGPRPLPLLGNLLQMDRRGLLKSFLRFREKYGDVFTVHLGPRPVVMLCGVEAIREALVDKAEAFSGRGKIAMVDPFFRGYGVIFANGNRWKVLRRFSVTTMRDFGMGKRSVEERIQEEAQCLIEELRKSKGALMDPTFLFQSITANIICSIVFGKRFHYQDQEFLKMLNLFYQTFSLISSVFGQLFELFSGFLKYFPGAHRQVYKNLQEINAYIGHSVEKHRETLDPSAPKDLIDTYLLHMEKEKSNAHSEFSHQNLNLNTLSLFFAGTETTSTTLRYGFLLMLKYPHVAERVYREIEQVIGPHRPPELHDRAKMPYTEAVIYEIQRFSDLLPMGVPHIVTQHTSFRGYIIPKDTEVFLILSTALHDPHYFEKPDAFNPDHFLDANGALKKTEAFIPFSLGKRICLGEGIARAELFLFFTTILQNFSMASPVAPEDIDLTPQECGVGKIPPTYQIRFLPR

[1] = Permeability of compound in PBS at pH 7.4 at 500 uM incubated for 4 hrs by UV spectrophotometry based PAMPA; type: ADME; settings: read-out: permeability
[2] = Metabolic stability in pooled human liver microsomes assessed as half-life at 100 uM measured upto 120 mins by LC-MS/MS analysis; type: ADME, Microsome
[3] = Cytotoxicity against human HepG2 cells; type: toxicity, cell-based
[4] = Cytotoxicity against human A549 cells; type: toxicity, cell-based
[5] = biological target: Protein cereblon/Cyclin-dependent kinase 2 (Homo sapiens, UniProt P24941+Q96SW2); experiment: PROTAC activity at CRBN/CDK2 (unknown origin) assessed as induction of CDK2 degradation; type: protein assay
[6] = biological target: T2, Protein cereblon/Cyclin-dependent kinase 5 (Homo sapiens, UniProt Q00535+Q96SW2); experiment: PROTAC activity at CRBN/CDK5 in human PANC-1 cells assessed as induction of CDK5 degradation by target engagement binding based cell-ELISA
Target sequence in this assay (Q00535 whole entry): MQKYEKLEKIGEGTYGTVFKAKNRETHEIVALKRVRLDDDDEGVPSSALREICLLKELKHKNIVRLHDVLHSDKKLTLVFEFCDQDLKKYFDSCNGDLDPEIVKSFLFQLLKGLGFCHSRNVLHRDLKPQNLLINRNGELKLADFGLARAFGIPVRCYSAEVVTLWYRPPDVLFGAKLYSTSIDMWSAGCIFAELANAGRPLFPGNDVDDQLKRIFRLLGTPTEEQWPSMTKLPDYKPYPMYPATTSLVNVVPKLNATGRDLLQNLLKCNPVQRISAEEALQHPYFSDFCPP
Target sequence in this assay (Q96SW2 whole entry): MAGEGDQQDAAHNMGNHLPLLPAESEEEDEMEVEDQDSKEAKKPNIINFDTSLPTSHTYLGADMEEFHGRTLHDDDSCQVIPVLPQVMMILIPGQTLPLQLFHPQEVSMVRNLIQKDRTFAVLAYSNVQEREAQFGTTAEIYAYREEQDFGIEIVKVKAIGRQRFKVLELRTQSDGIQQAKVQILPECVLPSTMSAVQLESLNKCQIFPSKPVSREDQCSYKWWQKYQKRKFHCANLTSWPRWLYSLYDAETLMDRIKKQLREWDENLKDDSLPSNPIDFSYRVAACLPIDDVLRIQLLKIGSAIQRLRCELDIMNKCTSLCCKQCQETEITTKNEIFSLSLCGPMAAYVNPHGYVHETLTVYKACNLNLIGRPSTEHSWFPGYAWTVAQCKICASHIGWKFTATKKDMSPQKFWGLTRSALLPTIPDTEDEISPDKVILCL

[7] = biological target: T2, Protein cereblon/Cyclin-dependent kinase 5; experiment: PROTAC activity at CRBN/CDK5 in human PANC-1 cells assessed as induction of CDK5 degradation by measuring maximal efficacy by target engagement binding based cell-ELISA relative to control
Target sequence in this assay (Q00535 whole entry, looked up): as the sequence (Q00535 whole entry) above
Target sequence in this assay (Q96SW2 whole entry, looked up): as the sequence (Q96SW2 whole entry) above

BXPC-3 = experiment: Antiproliferative activity against human BXPC-3 cells assessed as inhibition of cell viability by MTT assay; type: functional, cell-based
[8] = biological target: T3, Protein cereblon/Glycogen synthase kinase-3 beta (Homo sapiens, UniProt P49841+Q96SW2); experiment: PROTAC activity at CRBN/GSK3beta in human PANC-1 cells assessed as induction of GSK3beta degradation by measuring maximal efficacy by target engagement binding based cell-ELISA relative to control
Target sequence in this assay (P49841 whole entry, looked up): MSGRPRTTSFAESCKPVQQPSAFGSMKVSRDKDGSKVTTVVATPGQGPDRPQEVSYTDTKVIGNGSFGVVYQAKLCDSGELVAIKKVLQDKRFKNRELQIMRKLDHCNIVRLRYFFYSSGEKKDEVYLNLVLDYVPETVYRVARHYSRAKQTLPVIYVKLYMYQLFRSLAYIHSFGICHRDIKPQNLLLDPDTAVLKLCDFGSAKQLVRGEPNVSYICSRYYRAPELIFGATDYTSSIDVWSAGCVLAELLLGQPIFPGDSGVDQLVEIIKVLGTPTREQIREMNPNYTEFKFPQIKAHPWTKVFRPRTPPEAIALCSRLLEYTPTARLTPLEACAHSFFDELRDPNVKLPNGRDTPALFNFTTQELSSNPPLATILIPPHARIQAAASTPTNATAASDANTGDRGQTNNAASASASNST
Target sequence in this assay (Q96SW2 whole entry, looked up): as the sequence (Q96SW2 whole entry) above

MIA PaCa-2 = experiment: Antiproliferative activity against human MIA PaCa-2 cells assessed as inhibition of cell viability by MTT assay; type: functional, cell-based
[9] = biological target: T3, Protein cereblon/Glycogen synthase kinase-3 beta; experiment: PROTAC activity at CRBN/GSK3beta in human PANC-1 cells assessed as induction of GSK3beta degradation at 0.5 to 2.8 uM incubated for 10 hrs in presence of MG132 by Western blot analysis; type: cell-based; settings: dose 0.5-2.8 µM
Target sequence in this assay (P49841 whole entry, looked up): as the sequence (P49841 whole entry, looked up) above
Target sequence in this assay (Q96SW2 whole entry, looked up): as the sequence (Q96SW2 whole entry) above

[10] = biological target: T2, Protein cereblon/Cyclin-dependent kinase 5; experiment: PROTAC activity at CRBN/CDK5 in human PANC-1 cells assessed as induction of CDK5 degradation at 1 to 2.8 uM incubated for 10 hrs by Western blot analysis; type: cell-based; settings: dose 1-2.8 µM
Target sequence in this assay (Q00535 whole entry, looked up): as the sequence (Q00535 whole entry) above
Target sequence in this assay (Q96SW2 whole entry, looked up): as the sequence (Q96SW2 whole entry) above

[11] = biological target: T3, Protein cereblon/Glycogen synthase kinase-3 beta; experiment: PROTAC activity at CRBN/GSK3beta in human PANC-1 cells assessed as induction of GSK3beta degradation at 1 to 2.8 uM incubated for 10 hrs by Western blot analysis; type: cell-based; settings: dose 1-2.8 µM
Target sequence in this assay (P49841 whole entry, looked up): as the sequence (P49841 whole entry, looked up) above
Target sequence in this assay (Q96SW2 whole entry, looked up): as the sequence (Q96SW2 whole entry) above

ASPC1 = experiment: Antiproliferative activity against human ASPC1 cells assessed as inhibition of cell viability by MTT assay; type: functional, cell-based
[12] = biological target: T3, Protein cereblon/Glycogen synthase kinase-3 beta; experiment: PROTAC activity at CRBN/GSK3beta in human PANC-1 cells assessed as induction of GSK3beta degradation by target engagement binding based cell-ELISA
Target sequence in this assay (P49841 whole entry): as the sequence (P49841 whole entry, looked up) above
Target sequence in this assay (Q96SW2 whole entry): as the sequence (Q96SW2 whole entry) above

[13] = biological target: T2, Protein cereblon/Cyclin-dependent kinase 5; experiment: PROTAC activity at CRBN/CDK5 in human PANC-1 cells assessed as induction of CDK5 degradation at 0.5 to 2.8 uM incubated for 10 hrs in presence of MG132 by Western blot analysis; type: cell-based; settings: dose 0.5-2.8 µM
Target sequence in this assay (Q00535 whole entry, looked up): as the sequence (Q00535 whole entry) above
Target sequence in this assay (Q96SW2 whole entry, looked up): as the sequence (Q96SW2 whole entry) above

PANC-1 = experiment: Antiproliferative activity against human PANC-1 cells assessed as inhibition of cell viability by MTT assay; type: functional, cell-based

IC50 (Cytochrome P450 2B6) [nM] | Papp at 4 h, 500 µM [1] [×10⁻⁶ cm/s] | half-life at 100 µM [2] [min] | DC50 [5] [nM] | DC50 [6] [nM] | Emax [7] [%] | IC50 (BXPC-3) [nM] | Emax [8] [%] | IC50 (MIA PaCa-2) [nM] | Activity [9] | Activity [10] | Activity [11] | IC50 (ASPC1) [nM] | DC50 [12] [nM] | Activity [13] | IC50 (PANC-1) [nM] | SMILES | CC50 [3] [nM] | CC50 [4] [nM]
12500 | – | – | – | – | – | – | – | – | – | – | – | – | – | – | – | CN[C@H]1CC[C@@H](c2ccc(Cl)c(Cl)c2)c2ccccc21 [SERTRALINE] | – | –
– | 4.08 | – | – | – | – | – | – | – | – | – | – | – | – | – | – | OC[C@@H](O)[C@@H](O)[C@H](O)[C@H](O)CO [MANNITOL] | – | –
– | – | 57 | – | – | – | – | – | – | – | – | – | – | – | – | – | CC(=O)c1c(C)c2cnc(Nc3ccc(N4CCNCC4)cn3)nc2n(C2CCCC2)c1=O [PALBOCICLIB] | 8120 | 7950
– | – | – | 61 | – | – | – | – | – | – | – | – | – | – | – | – | Cc1cscc1C(=O)n1nc(Nc2ccc(S(=O)(=O)NCCOCc3cn(CCOCCOCCNc4cccc5c4C(=O)N(C4CCC(=O)NC4=O)C5=O)nn3)cc2)nc1N (centres undefined) | – | –
– | 69.2 | – | – | 52 | 89 | 2870 | 88 | 2430 | inactive | Active | Active | 3870 | 56 | inactive | 2500 | O=C1CCC(N2C(=O)c3ccc(N4CCN(CCOCCC(=O)N5CCN(CCCn6cc(C7=C(c8c[nH]c9ccccc89)C(=O)NC7=O)c7ccccc76)CC5)CC4)cc3C2=O)C(=O)N1 (centres undefined) | – | –
– | 31.3 | – | – | 45 | 90 | 2890 | 78 | 3120 | inactive | – | – | 2560 | 152 | inactive | 2340 | CN(CCC(=O)N1CCC(NC(=O)c2c[nH]nc2NC(=O)c2c(Cl)cccc2Cl)CC1)C(=O)CNc1cccc2c1C(=O)N(C1CCC(=O)NC1=O)C2=O (centres undefined) | – | –
– | 61.2 | – | – | 36 | 92 | 3140 | 89 | 3810 | inactive | – | – | 3570 | 90 | inactive | 2750 | O=C1CCC(N2C(=O)c3cccc(NCCOCCOCCOCC(=O)N4CCC(NC(=O)c5c[nH]nc5NC(=O)c5c(Cl)cccc5Cl)CC4)c3C2=O)C(=O)N1 (centres undefined) | – | –
– | – | – | – | 210 | 81 | 5980 | 87 | 6610 | inactive | – | – | 5560 | 96 | inactive | 5150 | O=C1CCC(N2C(=O)c3cccc(NCCOCCOCCOCC(=O)N4CCN(CCCn5cc(C6=C(c7c[nH]c8ccccc78)C(=O)NC6=O)c6ccccc65)CC4)c3C2=O)C(=O)N1 (centres undefined) | – | –
– | – | – | – | 321 | 78 | 3540 | 81 | 3010 | inactive | – | – | 3580 | 125 | inactive | 2810 | O=C1CCC(N2C(=O)c3cccc(NCC(=O)N4CCC(C(=O)N5CCN(CCCn6cc(C7=C(c8c[nH]c9ccccc89)C(=O)NC7=O)c7ccccc76)CC5)CC4)c3C2=O)C(=O)N1 (centres undefined) | – | –
– | 38.6 | – | – | 32 | 90 | 2210 | 89 | 2190 | inactive | Active | Active | 2250 | 98 | inactive | 1950 | O=C1CCC(N2C(=O)c3ccc(N4CCN(CCOCCC(=O)N5CCC(NC(=O)c6c[nH]nc6NC(=O)c6c(Cl)cccc6Cl)CC5)CC4)cc3C2=O)C(=O)N1 (centres undefined) | – | –
– | – | – | – | 330 | 78 | 4870 | 75 | 4670 | inactive | – | – | 3350 | 220 | inactive | 5720 | O=C1CCC(N2C(=O)c3cccc(NCCOCCOCCOCCOCCOCn4cc(CN5CCN(CCCn6cc(C7=C(c8c[nH]c9ccccc89)C(=O)NC7=O)c7ccccc76)CC5)nn4)c3C2=O)C(=O)N1 (centres undefined) | – | –
– | – | – | – | – | – | 9100 | – | 7200 | – | – | – | 6500 | – | – | 8600 | O=C1Cc2c([nH]c3ccc(Br)cc23)-c2ccccc2N1 [KENPAULLONE] | – | –

SMILES | IC50 (Cytochrome P450 2B6) [nM] | Papp at 4 h, 500 µM [1] [×10⁻⁶ cm/s] | half-life at 100 µM [2] [min] | DC50 [5] [nM] | DC50 [6] [nM] | Emax [7] [%] | IC50 (BXPC-3) [nM] | Emax [8] [%] | IC50 (MIA PaCa-2) [nM] | Activity [9] | Activity [10] | Activity [11] | IC50 (ASPC1) [nM] | DC50 [12] [nM] | Activity [13] | IC50 (PANC-1) [nM] | CC50 [3] [nM] | CC50 [4] [nM]
Cc1cc(=O)n(-c2ccccc2)n1C [ANTIPYRINE] | – | 15.2 | – | – | – | – | – | – | – | – | – | – | – | – | – | – | – | –

From ChEMBL document CHEMBL6114965, “Novel dual-targeting PROTAC degraders of GSK-3β and CDK5: A promising approach for pancreatic cancer treatment” (Bioorg Med Chem, 2025)
